Laboratory results reported in article PMC6337391 (Molecules, 2019).

Columns and labels:
[1] = design: method as in PMID 25798685; conditions: cited from earlier work
[2] = target: acetyl-cholinesterase (AChE) (Electrophorus electricus, UniProt O42275); conditions: cited from earlier work
[3] = target: T1, soybean lipoxygenase (Glycine max, UniProt P08170); design: method as in PMID 25798685; conditions: cited from earlier work
T1 sequence (P08170 1-839): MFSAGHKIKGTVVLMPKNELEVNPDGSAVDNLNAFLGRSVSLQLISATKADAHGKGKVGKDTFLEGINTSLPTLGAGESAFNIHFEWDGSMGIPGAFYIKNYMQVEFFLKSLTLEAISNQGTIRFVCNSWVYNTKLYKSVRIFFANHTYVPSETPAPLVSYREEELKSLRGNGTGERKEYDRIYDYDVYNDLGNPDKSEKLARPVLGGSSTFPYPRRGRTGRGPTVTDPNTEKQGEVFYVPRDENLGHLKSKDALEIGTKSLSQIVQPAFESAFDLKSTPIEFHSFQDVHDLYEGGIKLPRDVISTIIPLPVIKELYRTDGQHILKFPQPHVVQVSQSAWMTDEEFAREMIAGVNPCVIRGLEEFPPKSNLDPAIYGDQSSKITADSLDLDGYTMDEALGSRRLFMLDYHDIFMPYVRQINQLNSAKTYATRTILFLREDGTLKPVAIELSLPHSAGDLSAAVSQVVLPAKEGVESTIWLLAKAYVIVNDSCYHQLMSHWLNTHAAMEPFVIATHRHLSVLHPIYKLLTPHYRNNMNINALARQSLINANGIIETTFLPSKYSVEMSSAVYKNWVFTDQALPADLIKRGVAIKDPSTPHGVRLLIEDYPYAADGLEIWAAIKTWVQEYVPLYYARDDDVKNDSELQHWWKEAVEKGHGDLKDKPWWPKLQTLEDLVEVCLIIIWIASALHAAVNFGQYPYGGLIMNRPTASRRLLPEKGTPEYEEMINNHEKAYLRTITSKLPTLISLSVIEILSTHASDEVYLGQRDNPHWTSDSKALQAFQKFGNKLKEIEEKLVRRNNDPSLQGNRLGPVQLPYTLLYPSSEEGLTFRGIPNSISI

[4] = design: method as in PMID 25798685; conditions: cited from earlier work; remark: listed apart in the source
[5] = In vitro lipid peroxidation of liposomes
[6] = design: method as in PMID 25798685; conditions: DPPH, cited from earlier work
[7] = tested on: L929 mouse fibroblasts cells; design: method as in PMID 25798685; conditions: 24-h incubation, cited from earlier work
[8] = design: method as in PMID 25798685; conditions: RP-TLC, methanol/water 70/30, SD < 10%; cited from earlier work
[9] = target: T2, Aβ40 (Homo sapiens, UniProt P05067); test: Circular dichroism study of Aβ40 aggregation; conditions: 50 µM compound, 50 µM Aβ40 (1:1), PB pH 7.33, 33 °C, 40 days
T2 construct: Amyloid peptide Aβ40 was purchased from AnaSpec Co; purchased AnaSpec Co. (Fremont, CA, USA)
T2 sequence (P05067 672-711 limits assumed): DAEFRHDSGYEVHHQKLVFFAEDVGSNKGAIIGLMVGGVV
From the text: The pathogenesis of Alzheimer’s disease (AD) is widely associated with the aggregation of β-amyloid peptide (Aβ) either to soluble oligomers or to higher-order polymeric insoluble fibrils. As a result, one of the main therapeutic strategies against AD targets the aggregation process of Aβ, and a great number of small molecules are being investigated for their potential to intervene in the assembly of Aβ and inhibit its neurotoxicity in vitro and in vivo [64]. Circular dichroism (CD) spectroscopy is commonly used to probe the secondary structure of polypeptides and to monitor conformational changes and interactions of polypeptides with small molecules. The typical aggregation process of Aβ produces characteristic CD spectra over time that reflect the conformational changes that occur as the random coil monomers are converted into β-sheet oligomers, and then gradually to larger β-sheet formations that finally produce amyloid fibrils. CD is, therefore, a valuable tool to monitor the aggregation process of Aβ and to study the effect of potential aggregation inhibitors. To further investigate the pleiotropic effects of chalcones against AD, selected compounds from our library, were subjected to CD studies in order to evaluate their potential to interfere with the aggregation process of Aβ40. […] The aggregation spectra of plain Aβ40 show at day 0 the typical random coil peak (negative maximum at 198 nm) the intensity of which gradually decreases as the peptide forms β–sheet structures (negative maximum at 222 nm, day 15) that further aggregate to higher order polymeric fibrils. The precipitation of the insoluble fibrils from solution eventually results in the loss of CD signal (days 30 and 40). […] In view of the above results, chalcone derivatives bearing a three-carbon chain linker, specifically c2, c3, and c4, were subsequently studied in order to assess the effect of further derivatization and the presence of the chalcone moiety in the structure. […] Overall, our CD study identified three new structures capable of interfering with the aggregation process of Aβ, out of which compounds c2 and c4 display additional protective actions against AD and add to the pleiotropic profile of the chalcone derivatives.
Preparation of Aβ stocks and solutions. Amyloid peptide Aβ40 was purchased from AnaSpec Co. (Fremont, CA, USA) (>95% pure). Aβ40 was gently dissolved without vortexing in Type 1 (Milli-Q) water to a final concentration of 100 μM. Solutions of Aβ in phosphate buffer (PB, 10 mM, pH 7.33) were prepared by adding equal volumes of PB to aliquots of the aqueous solution stock to achieve final concentration of 50 µM. The proper amount of the compounds c2, c3, c4, di, dii, and dvi were added to the Aβ solutions to achieve concentration of 50 μM. The secondary structural changes of Aβ were monitored for 40 days by CD. During this period, the amyloid peptide solutions were kept at an incubator at 33 °C under quiescent conditions.
Circular dichroism measurements. CD spectra were recorded on a JASCO J-715 spectropolarimeter (Jasco Co., Tokyo, Japan), at 33 °C in the range of 190–260 nm with a 1 mm path length quartz cuvette. Each spectrum was the average of three scans at a speed of 100 nm·min^−1 and a resolution of 0.5 nm. Three independent experiments were run for each condition and in each case solutions of plain Aβ were run as control (Figure 8). The analysis of the CD data was performed using the OriginPro 9 program.

Chain of acetyl-cholinesterase (AChE) (O42275 24-633): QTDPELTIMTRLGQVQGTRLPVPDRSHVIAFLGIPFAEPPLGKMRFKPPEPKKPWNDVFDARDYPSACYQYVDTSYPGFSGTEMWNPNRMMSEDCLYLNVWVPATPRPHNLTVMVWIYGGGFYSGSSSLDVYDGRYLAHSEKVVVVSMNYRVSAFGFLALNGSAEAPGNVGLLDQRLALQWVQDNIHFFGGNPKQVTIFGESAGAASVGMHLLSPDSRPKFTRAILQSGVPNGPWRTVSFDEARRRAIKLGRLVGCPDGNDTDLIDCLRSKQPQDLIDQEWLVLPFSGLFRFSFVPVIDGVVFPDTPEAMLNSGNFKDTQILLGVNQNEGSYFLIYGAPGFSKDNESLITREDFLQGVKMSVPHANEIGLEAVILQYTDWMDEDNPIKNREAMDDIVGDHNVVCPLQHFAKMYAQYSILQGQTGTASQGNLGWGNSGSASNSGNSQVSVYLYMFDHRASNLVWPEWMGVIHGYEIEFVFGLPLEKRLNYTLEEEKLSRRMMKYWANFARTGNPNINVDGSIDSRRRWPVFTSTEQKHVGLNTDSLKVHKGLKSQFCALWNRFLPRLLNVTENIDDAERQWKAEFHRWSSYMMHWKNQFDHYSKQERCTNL

| Structure (SMILES) | AAPH% @ 100 μM (anti-lipid peroxidation) [1] | % AChE Inhb. @ 100 μM [2] | % LOX Inhb. @ 100 μM [3] | ABTS•+ Inhb. % @ 100 μM [4] | % Inhb. of Liposomes LP @ 100 μM [5] | RA% 100 μM 20 min [6] | RA% 100 μM 60 min [6] | 1 μM Average (% pi) ± σ [7] | 10 μM Average (% pi) ± σ [7] | 20 μM Average (% pi) ± σ [7] | 50 μM Average (% pi) ± σ [7] | 100 μM Average (% pi) ± σ [7] | RM [8] | effect on the aggregation process of Aβ40 (CD spectra) [9] | IC50 ([3]; soybean LOX) |
| --- | --- | --- | --- | --- | --- | --- | --- | --- | --- | --- | --- | --- | --- | --- | --- |
| CN(C)c1ccc(/C=C/C=C/C(=O)c2ccc(OCCCOc3ccc(C(=O)/C=C/C=C/c4ccc(N(C)C)cc4)cc3)cc2)cc1 [c3, (2E,2′E, 4E, 4′E)-1,1′-((propane-1,3-diylbis-(oxy))bis(4,1-phenylene)) bis-(5-(4-(dimethylamino)phenyl)penta-2,4-dien-1-one)] | 70% | 95% | 93% | 99% | 81% | 17% | 14% | 81 ± 0.8% | 90 ± 1% | 100 ± 0% | 100 ± 0% | 100 ± 0% | 0.77 | no significant effect on the aggregation process of Aβ40 was observed | – |
| CC(=O)c1ccc(OCCCOc2ccc(C(C)=O)cc2)cc1 [dii, 1,1′-((propane-1,3-diylbis-(oxy))bis(4,1-phenylene))diethanone] | 20% | 20% | no | No | – | No | no | 9 ± 4.5% | 8.5 ± 4.24% | 13 ± 4.5% | 42 ± 3.5% | 42 ± 3.5% | −0.23 | modified the aggregation course of Aβ40 by stabilizing a β-sheet structure that did not seem to evolve further | – |
| O=C(/C=C/c1cccc(Oc2ccccc2)c1)c1ccc(OCCCOc2ccc(C(=O)/C=C/c3cccc(Oc4ccccc4)c3)cc2)cc1 [c2, (2E,2′E)-1,1′-((propane-1,3-diylbis(oxy))bis(4,1-phenylene))bis(3-(3-phenoxyphenyl)prop-2-en-1-one)] | 22% | 71% | 100% | no | 2% | No | 8% | 17 ± 1.4% | 29 ± 4.2% | 43 ± 2.8% | 55 ± 4.2% | 55 ± 4.2% | −0.89 | stabilized β-sheet assemblies that did not evolve further into insoluble fibrillar aggregates | 55 µM |
| O=C(/C=C/c1cccc2ccccc12)c1ccc(OCCCOc2ccc(C(=O)/C=C/c3cccc4ccccc34)cc2)cc1 [c4, (2E,2′E)-1, 1′-((propane-1,3-diylbis-(oxy))bis-(4,1-phenylene)) bis-(3-(naphthalen-1-yl)prop-2-en-1-one)] | 95% | 58% | 100% | no | 3% | 19% | 50% | 29.5 ± 3.5% | 42 ± 4.6% | 46 ± 5.6% | 67 ± 9.2% | 67 ± 9.2% | 0.43 | stabilized β-sheet assemblies that did not evolve further into insoluble fibrillar aggregates | – |
